Measurements published in patent US9796958B2, “Bacterial growth enhancer” (Plant Bioscience Limited, priority 2005, dated 2017).

Key:
Type in all cases: cell-based
E. coli = conditions: 55Fe-complexed human lactoferrin, tannic acid 50 μg/ml, other compounds 100 μM, BF 2% v/v
Protocol: (§1) L. casei and E. coli were added at around 5×10^6 CFU/ml to triplicate 1 ml serum-SAPI medium containing the additions shown in Table 2, and 2×10^5 cpm/ml of ^55Fe-complexed human lactoferrin. Tannic acid was used at 50 μg/ml, the other compounds were all used at 100 μM, final concentration; BF was used at 2% v/v. Cultures were incubated as described in the legend to FIG. 2, and growth enumerated on MRS agar (L. casei) or Luria agar (E. coli). ^55Fe incorporation was determined by scintillation counting of triplicate washed bacteria cultures.

L. casei = test: Delivery of lactoferrin-complexed 55Fe to bacteria in serum-SAPI; conditions: 55Fe-complexed human lactoferrin, tannic acid 50 μg/ml, other compounds 100 μM, BF 2% v/v
Protocol: as §1

LAB = LAB growth response to catecholamines in serum-based media; conditions: serum-based media only

Molecule	55Fe incorporation/ml of culture (E. coli)	55Fe incorporation/ml of culture (L. casei)	Increase in LAB growth (LAB)
O=C(O)/C=C/c1ccc(O)c(O)c1 [Caffeic acid]	11385	29	–
O=C(OC[C@H]1O[C@@H](OC(=O)c2cc(O)c(O)c(OC(=O)c3cc(O)c(O)c(O)c3)c2)[C@H](OC(=O)c2cc(O)c(O)c(OC(=O)c3cc(O)c(O)c(O)c3)c2)[C@@H](OC(=O)c2cc(O)c(O)c(OC(=O)c3cc(O)c(O)c(O)c3)c2)[C@@H]1OC(=O)c1cc(O)c(O)c(OC(=O)c2cc(O)c(O)c(O)c2)c1)c1cc(O)c(O)c(OC(=O)c2cc(O)c(O)c(O)c2)c1 [Tannic acid]	13952	28	–
Catechin	3931	57	–
NC[C@H](O)c1ccc(O)c(O)c1 [Noradrenaline]	8542	29	around 2 log-fold
O=C(/C=C/c1ccc(O)c(O)c1)O[C@@H]1C[C@](O)(C(=O)O)C[C@@H](O)[C@H]1O [Chlorogenic acid]	7374	28	–
NCCc1ccc(O)c(O)c1 [Dopamine]	6815	48	around 2 log-fold
